Assay results published in patent US20220235006A1, “PYRIDINE DERIVATIVES AS TMEM16A MODULATORS FOR USE IN THE TREATMENT OF RESPIRATORY CONDITIONS” (TMEM16A LIMITED, priority 2019, published 2022).
Converted amounts (≈) assume the structure as drawn.

Tests used:
[1] = Log D (pH7.4 shake flask); assay type: physicochemical; settings: pH 7.4; 1-octanol/phosphate buffer shake flask; read-out: mLogD (pH 7.4)
Method: Phosphate buffer (1 M) was diluted to 20 mM with deionised water and adjusted to pH 7.4 with phosphoric acid or sodium hydroxide. 1-octanol and phosphate buffer (20 mM) were saturated overnight by tumbling. The two phases were separated using a separation funnel. 5 μL of 5 mM compound cassette was added to 495 μL of octanol-saturated buffer and 495 μL buffer saturated octanol in a 96-well plate (top concentration 50 μM). Plate was shaken for 1 h and centrifuged at 25° C. for 5 min. 200 μL of each phase was transferred to a separate plate. The octanol layer was sampled first to avoid cross contamination. 5 μL of the solutions were transferred to 495 μL of quench solution* (max concentration 0.5 μM). In addition, 40 μL of buffer solution was added to 360 μL of quench solvent (max concentration 5 μM). Samples were analysed by LC-MS/MS. Benchmarking against a calibration curve for each compound and with reference to the control compounds sulpride, diclofenac, chlorpromazine and tamoxifen. *Quench solution was a 1:3:1 mixture (v/v/v) of Acetonitrile containing 0.1% formic acid and imipramine/labetalol, 200 nM:Acetonitrile:Water.

[2] = Kinetic solubility determination (high throughput); assay type: physicochemical; settings: kinetic from dmso stock, sterile water, 5% DMSO, room temperature
Method: Test compounds (10 μL; 20 mM DMSO solution) were added to sterile water (190 μL) in triplicate and shaken at 300 rpm at room temperature. After 90 min. the test compounds were filtered by centrifuge (5 min. at 3000 rpm) to obtain the aqueous filtrate. Acetonitrile (20 μL) was dispensed into clean 96-well UV/VIS analysis plate and aqueous filtrate (80 μL) added and the plate analysed for test compound concentration using a Molecular Devices SPECTRAmax® plus microplate reader at the following wavelengths: (280, 300, 320, 340, 360, 800 nm). […] The diluted filtrate (80 μL) was then added to acetonitrile (20 μL) and the plate analysed. as previously.

[3] = molecular target: T1, human TMEM16A (TMEM16Aabc variant) (Homo sapiens, UniProt Q5XXA6, DEL476-501); assay: Automated whole-cell patch clamp (Qpatch) TMEM16A potentiator assay in recombinant FRT cells; assay type: cell-based; settings: for activation at 3.33 µM: percentage increase of baseline TMEM16A current, minimum n = 2, read-out: % Potentiation @ 3.33 uM Avg; for EC50: minimum n = 2
T1 sequence (Q5XXA6 with tags, fused parts or gaps isoform Q5XXA6-5 DEL539-564): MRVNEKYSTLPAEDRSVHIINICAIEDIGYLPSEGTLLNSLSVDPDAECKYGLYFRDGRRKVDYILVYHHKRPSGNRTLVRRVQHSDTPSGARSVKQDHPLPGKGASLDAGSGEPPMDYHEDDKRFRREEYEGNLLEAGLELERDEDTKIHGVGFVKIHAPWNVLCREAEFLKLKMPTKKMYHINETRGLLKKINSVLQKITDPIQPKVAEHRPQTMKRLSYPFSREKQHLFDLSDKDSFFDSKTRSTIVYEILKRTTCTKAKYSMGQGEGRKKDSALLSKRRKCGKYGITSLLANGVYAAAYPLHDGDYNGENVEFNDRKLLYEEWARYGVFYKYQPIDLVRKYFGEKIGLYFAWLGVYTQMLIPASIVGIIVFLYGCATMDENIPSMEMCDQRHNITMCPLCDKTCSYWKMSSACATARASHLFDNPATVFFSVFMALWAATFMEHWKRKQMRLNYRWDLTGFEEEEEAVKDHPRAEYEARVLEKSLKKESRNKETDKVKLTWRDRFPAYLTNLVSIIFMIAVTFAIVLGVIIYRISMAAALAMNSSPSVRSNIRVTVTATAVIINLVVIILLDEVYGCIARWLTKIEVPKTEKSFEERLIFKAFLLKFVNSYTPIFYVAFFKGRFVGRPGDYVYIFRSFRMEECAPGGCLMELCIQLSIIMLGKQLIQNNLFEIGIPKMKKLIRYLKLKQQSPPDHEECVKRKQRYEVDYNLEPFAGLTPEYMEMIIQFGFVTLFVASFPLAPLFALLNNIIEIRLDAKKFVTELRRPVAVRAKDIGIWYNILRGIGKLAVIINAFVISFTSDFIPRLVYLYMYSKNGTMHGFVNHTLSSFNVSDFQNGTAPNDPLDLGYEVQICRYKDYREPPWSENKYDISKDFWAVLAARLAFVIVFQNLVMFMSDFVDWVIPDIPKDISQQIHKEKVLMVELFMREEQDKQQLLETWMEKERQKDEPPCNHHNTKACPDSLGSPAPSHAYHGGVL
Method: Automated Whole-Cell Patch Clamp Assay to Detect TMEM16A Activity in Recombinant Cells
Fisher rat thyroid (FRT) cells stably expressing human TMEM16A (TMEM16Aabc variant; Dr Luis Galietta, Insituto Giannina, Italy) were cultured in T-75 flasks in Hams F-12 media with Coon's modification (Sigma) supplemented with 10% (v/v) foetal bovine serum, penicillin-streptomycin (10,000 U/mL/10000 μg/mL), G-418 (750 μg/mL), L-glutamine (2 mM) and sodium bicarbonate solution (7.5% v/v). At ˜90% confluence cells were harvested for experiments by detachment with a 2:1 (v/v) mixture of Detachin (BMS Biotechnology) and 0.25% (w/v) trypsin-EDTA.
FRT-TMEM16A cells were whole-cell patch clamped using an automated planar patch clamp system (Qpatch, Sophion). Briefly, once high resistance (GOhm) seals were established between the cells and the planar recording array the patch was ruptured using suction pulses to establish the whole-cell recording configuration of the patch clamp technique. The assay employed the following solutions (all reagents Sigma): Intracellular solution (mM): N-methyl-D-glucamine 130, CaCl2 18.2, MgCl2 1, HEPES 10, EGTA 10, BAPTA 20, Mg-ATP 2, pH 7.25, 325 mOsm with sucrose.
Extracellular solution (mM): N-methyl-D-glucamine 130, CaCl2 2, MgCl2 1, HEPES 10, pH 7.3, 320 mOsm with sucrose.
The intracellular solution buffers intracellular calcium at levels required to give ˜20% activation of the maximal TMEM16A mediated current (E020 for calcium ions). Cells were voltage clamped at a holding potential of −70mV and a combined voltage step (to +70 mV)/ramp (−90 my to +90 mV) was applied at 0.05 Hz. After a period of current stabilisation test compounds, solubilised in 100% (v/v) DMSO and subsequently diluted into extracellular solution, were applied to generate a cumulative concentration response curve. Each concentration of test compound was incubated for 5 minutes before addition of the next concentration. After the final concentration was tested a supramaximal concentration of either a known active positive modulator or the TMEM16A inhibitor, CaCCinhA01 (Del La Fuente et al, 2008) was added to define the upper and lower limits of the assay.
Compound activity was quantified by measuring the increase in current upon compound addition and expressing this as a percentage increase of baseline TMEM16A current level.
Peak TMEM16A current at +70 mV was plotted as a function of time over the assay period. Baseline current (IBL) was measured after a period of stabilisation. The increase in current for each compound addition was determined by taking the peak current during the incubation period and subtracting the current from the previous recording period and then expressing this as a percentage of the baseline current (% potentiation). For test compound concentration 1 in FIG. 1 this is:
For each additional concentration tested the increase in current was determined by subtracting the current from the previous incubation period and normalising the baseline value—for test concentration 2 in FIG. 1 this is:
The values for each test concentration were plotted as a cumulative function of concentration eg. for test concentration two this would be the sum of the peak changes measured during concentration one plus concentration two.

| Structure (SMILES) | logD [1] | solubility kinetic at 90 min [2] | activation at 3.33 µM [3] | EC50 [3] |
| --- | --- | --- | --- | --- |
| CC(C)(C)NC(=O)c1cc(NC(=O)Cc2cc(O)c(C(C)(C)C#N)cc2F)ccn1 [Example 2.2, N-tert-Butyl-4-[[2-[4-(1-cyano-1-methyl-ethyl)-2-fluoro-5-hydroxy-phenyl]acetyl]amino]pyridine-2-carboxamide] | > 4.2 | 42 µg/mL (≈ 102 µM) | 356% | 150 nM |
| CC(C)(C#N)c1cc(F)c(CC(=O)Nc2ccnc(C(=O)NC3(C(F)(F)F)CC3)c2)cc1O [Example 2.3, 4-[[2-[4-(1-Cyano-1-methyl-ethyl)-2-fluoro-5-hydroxy-phenyl]acetyl]amino]-N-[1-(trifluoromethyl)cyclopropyl]pyridine-2-carboxamide] | 2.9 | 69 µg/mL (≈ 149 µM) | 72.1% | 52 nM |
| CC(C)(C#N)NC(=O)c1cc(NC(=O)Cc2cc(O)c(C(C)(C)CN3CCOCC3)cc2F)ccn1 [Example 2.5, N-(1-Cyano-1-methyl-ethyl)-4-[[2-[4-(1,1-dimethyl-2-morpholino-ethyl)-2-fluoro-5-hydroxy-phenyl]acetyl]amino]pyridine-2-carboxamide] | 2.7 | 327 µg/mL (≈ 657 µM) | 112% | – |
| CC(C)(C#N)NC(=O)c1cc(NC(=O)Cc2cc(O)c(C(C)(O)C(F)(F)F)cc2F)ccn1 (centres unmarked) [Example 2.7, N-(1-Cyano-1-methyl-ethyl)-4-[[2-[2-fluoro-5-hydroxy-4-(2,2,2-trifluoro-1-hydroxy-1-methyl-ethyl)phenyl]acetyl]amino]pyridine-2-carboxamide] | 3 | 164 µg/mL (≈ 350 µM) | 309% | 219 nM |
| [2H]c1c(O)c(C(C([2H])([2H])[2H])(C([2H])([2H])[2H])C([2H])([2H])[2H])cc(F)c1CC(=O)Nc1ccnc(C(=O)NC2(C#N)CC2)c1 [Example 4, N-(1-Cyanocyclopropyl)-4-[[2-[2-deuterio-6-fluoro-3-hydroxy-4-[2,2,2-trideuterio-1,1-bis(trideuteriomethyl)ethyl]phenyl]acetyl]amino]pyridine-2-carboxamide] | 3.8 | 29 µg/mL (≈ 69 µM) | 186% | 29 nM |
| CC(C)(C#N)NC(=O)c1cc(NC(=O)Cc2cc(O)c(C3(C)CCC3)cc2F)ccn1 [Example 5, N-(1-Cyano-1-methyl-ethyl)-4-[[2-[2-fluoro-5-hydroxy-4-(1-methylcyclobutyl)phenyl]acetyl]amino]pyridine-2-carboxamide] | > 4 | 17 µg/mL (≈ 40 µM) | 335% | 43 nM |
| CC(C)c1cc(C(C)(C)C)c(O)cc1CC(=O)Nc1ccnc(C(=O)NC(C)(C)C)c1 [Example 6, N-tert-Butyl-4-[[2-(4-tert-butyl-5-hydroxy-2-isopropyl-phenyl)acetyl]amino]pyridine-2-carboxamide] | > 4 | 12 µg/mL (≈ 28.2 µM) | 513% | 99 nM |
| C=C(C)c1cc(F)c(CC(=O)Nc2ccnc(C(=O)NC3(C(F)(F)F)CC3)c2)cc1O [Example 7.1, 4-[[2-(2-Fluoro-5-hydroxy-4-isopropenyl-phenyl)acetyl]amino]-N-[1-(trifluoromethyl)cyclopropyl]pyridine-2-carboxamide] | > 4.2 | 18 µg/mL (≈ 41.2 µM) | 433% | 15 nM |
| CC(C)(C)NC(=O)c1cc(NC(=O)Cc2cc(O)c(C3(C)CC3)cc2F)ccn1 [Example 8, N-tert-Butyl-4-[[2-[2-fluoro-5-hydroxy-4-(1-methylcyclopropyl)phenyl]acetyl]amino]pyridine-2-carboxamide] | > 4 | 37 µg/mL (≈ 92.6 µM) | 240% | 46 nM |
| N#CC1(NC(=O)c2cc(NC(=O)Cc3cc(O)c(C4(C(F)(F)F)CC4)cc3F)ccn2)CC1 [Example 9, N-(1-Cyanocyclopropyl)-4-[[2-[2-fluoro-5-hydroxy-4-[1-(trifluoromethyl)cyclopropyl]phenyl]acetyl]amino]pyridine-2-carboxamide] | 3.5 | 72 µg/mL (≈ 156 µM) | 378% | 88 nM |
| CC(C)(C)c1cc(Cl)c(CC(=O)Nc2ccnc(C(=O)NC3(C(F)(F)F)CC3)c2)cc1O [Example 10.1, 4-[[2-(4-tert-Butyl-2-chloro-5-hydroxy-phenyl)acetyl]amino]-N-[1-(trifluoromethyl)cyclopropyl]pyridine-2-carboxamide] | 3.7 | 256 µg/mL (≈ 545 µM) | 250% | 57 nM |
| CC(C)(C)c1cc(Cl)c(CC(=O)Nc2ccnc(C(=O)NC3(C#N)CC3)c2)cc1O [Example 10.2, 4-[[2-(4-tert-Butyl-2-chloro-5-hydroxy-phenyl)acetyl]amino]-N-(1-cyanocyclopropyl)pyridine-2-carboxamide] | 3.7 | 11 µg/mL (≈ 25.8 µM) | 252% | 52 nM |
